Data taken from article PMC7048748, “Anxiolytic Drug FGIN-1-27 Ameliorates Autoimmunity by Metabolic Reprogramming of Pathogenic Th17 Cells” (Scientific Reports, 2020).

Tested on: Th17 cells
Assay: Lipidomics of Th17 cells
Format: cell-based, mouse
Design: key to nCE(16:0) / nCE(18:2) / nDCER(22:0) / nDCER[FA14:0] / nFFA(12:0) / nFFA(14:1) / nFFA(18:4) / nCE(22:0) / nCE(22:6) / nCE(24:1) / nCE[FA14:1] / nCE(12:0) / nCE[FA16:0] / nCE[FA17:0] / nCE[FA18:2] / nCE[FA22:6]: mole percent of each fatty acid within its lipid class; key to nDCER[FA18:1]: mole percent of fatty acid within lipid class
Procedure: Specific cholesterol precursors like desmosterol and oxysterols, such as 7β, 27-dihydroxycholesterol (7β, 27-OHC), have been identified as ligands for RORγt[21],[22] and shown to modulate Th17 differentiation. […] Next, we extended our studies to lipid metabolites and profiled the lipidome of Th17 cells treated with DMSO or FGIN-1-27.
(a) Quantitation of cholesterol esters, triacylglycerols (TAGs), phosphatidylethanolamine (PE) and phosphatidylcholine (PC) in Th17 cells 72 hours after treatment with FGIN-1-27. The error bars represent SD. (b) Heat map showing fatty acid composition (mole percent) for different lipid classes after treatment with FGIN-1-27. (c) Pie charts showing proportions of different fatty acid classes namely PUFAs, MUFAs, ODD and SFAs within the cholesterol esters. (d) Transcript analysis for CD5L 72 hours post treatment with FGIN-1-27. The error bars represent SD.
Th17 cells were differentiated from naïve purified CD4 T cells and treated with either FGIN-1-27 (10 µM) or DMSO during polarization. 10 million cells/treatment were harvested and snap frozen. […] The extracts were concentrated under nitrogen and reconstituted in 0.25 mL of dichloromethane:methanol (50:50) containing 10 mM ammonium acetate. The extracts were placed in vials for infusion-MS analyses, performed on a SelexION equipped Sciex 5500 QTRAP using both positive and negative mode electrospray. Each sample was subjected to 2 analyses, with IMS-MS conditions optimized for lipid classes monitored in each analysis. The 5500 QTRAP was operated in MRM mode to monitor the transitions for over 1,100 lipids from up to 14 lipid classes. Individual lipid species were quantified based on the ratio of signal intensity for target compounds to the signal intensity for an assigned internal standard of known concentration. Lipid class concentrations were calculated from the sum of all molecular species within a class, and fatty acid compositions were determined by calculating the proportion of individual fatty acids within each class.

CCCCCCN(CCCCCC)C(=O)Cc1c(-c2ccc(F)cc2)[nH]c2ccccc12 [FGIN-1-27, N, N-di-n-hexyl 2-(4-fluorophenyl) indole-3-acetamide]
nDAG(15:0/18:2) (Th17 cells, 10 µM): 0.0745
nDAG(16:0/16:0) (Th17 cells, 10 µM): 19.5066
nDAG(16:0/16:1) (Th17 cells, 10 µM): 3.679
nDAG(16:0/18:0) (Th17 cells, 10 µM): 17.7482
nDAG(16:0/18:1) (Th17 cells, 10 µM): 17.8834
nDAG(16:0/18:2) (Th17 cells, 10 µM): 1.3367
nDAG(16:0/18:3) (Th17 cells, 10 µM): 0.06918
nDAG(16:0/20:3) (Th17 cells, 10 µM): 2.168
nDAG(16:0/20:4) (Th17 cells, 10 µM): 0.4462
nDAG(16:0/20:5) (Th17 cells, 10 µM): 0.02527
nDAG(16:0/22:5) (Th17 cells, 10 µM): 0.2343
nDAG(16:0/22:6) (Th17 cells, 10 µM): 0.3639
nDAG(16:1/16:1) (Th17 cells, 10 µM): 0.2383
nDAG(16:1/18:0) (Th17 cells, 10 µM): 0.9172
nDAG(16:1/18:1) (Th17 cells, 10 µM): 1.986
nDAG(16:1/18:2) (Th17 cells, 10 µM): 0.2498
nDAG(16:1/18:3) (Th17 cells, 10 µM): 0.05893
nDAG(16:1/20:0) (Th17 cells, 10 µM): 0.281
nDAG(16:1/20:2) (Th17 cells, 10 µM): 0.05259
nDAG(16:1/20:4) (Th17 cells, 10 µM): 0.0501
nDAG(16:1/22:6) (Th17 cells, 10 µM): 0.1384
nDAG(18:0/18:1) (Th17 cells, 10 µM): 4.793
nDAG(18:0/18:2) (Th17 cells, 10 µM): 1.2841
nDAG(18:0/18:3) (Th17 cells, 10 µM): 0.04099
nDAG(18:0/22:6) (Th17 cells, 10 µM): 0.5166
nDAG(18:1/18:1) (Th17 cells, 10 µM): 5.728
nDAG(18:1/18:2) (Th17 cells, 10 µM): 1.367
nDAG(18:1/20:1) (Th17 cells, 10 µM): 0.6608
nDAG(18:1/20:2) (Th17 cells, 10 µM): 0.298
nDAG(18:1/20:3) (Th17 cells, 10 µM): 0.3254
nDAG(18:1/20:4) (Th17 cells, 10 µM): 0.3507
nDAG(18:1/20:5) (Th17 cells, 10 µM): 0.04364
nDAG(18:1/22:4) (Th17 cells, 10 µM): 0.1472
nDAG(18:1/22:5) (Th17 cells, 10 µM): 0.2687
nDAG(18:1/22:6) (Th17 cells, 10 µM): 0.3639
nDAG(18:2/18:3) (Th17 cells, 10 µM): 0.01794
nDAG(18:2/20:3) (Th17 cells, 10 µM): 0.05124
nDAG(18:2/20:4) (Th17 cells, 10 µM): 0.02818
nDAG(18:2/20:5) (Th17 cells, 10 µM): 0.009187
nDAG(18:2/22:4) (Th17 cells, 10 µM): 0.01566
nDAG(18:2/22:5) (Th17 cells, 10 µM): 0.004594
nDAG(18:2/22:6) (Th17 cells, 10 µM): 0.04424
nDAG(20:0/20:0) (Th17 cells, 10 µM): 0.1788
nDAG[FA12:0] (Th17 cells, 10 µM): 0.4433
nDAG[FA14:0] (Th17 cells, 10 µM): 7.546
nDAG[FA14:1] (Th17 cells, 10 µM): 0.2449
nDAG[FA15:0] (Th17 cells, 10 µM): 0.1819
nDAG[FA16:0] (Th17 cells, 10 µM): 46.2571
nDAG[FA16:1] (Th17 cells, 10 µM): 4.564
nDAG[FA18:0] (Th17 cells, 10 µM): 12.8033
nDAG[FA18:1] (Th17 cells, 10 µM): 21.7078
nDAG[FA18:2] (Th17 cells, 10 µM): 2.36
nDAG[FA18:3] (Th17 cells, 10 µM): 0.09864
nDAG[FA20:0] (Th17 cells, 10 µM): 0.4502
nDAG[FA20:1] (Th17 cells, 10 µM): 0.3304
nDAG[FA20:2] (Th17 cells, 10 µM): 0.1753
nDAG[FA20:3] (Th17 cells, 10 µM): 1.272
nDAG[FA20:4] (Th17 cells, 10 µM): 0.4517
nDAG[FA20:5] (Th17 cells, 10 µM): 0.03905
nDAG[FA22:4] (Th17 cells, 10 µM): 0.08141
nDAG[FA22:5] (Th17 cells, 10 µM): 0.2538
nDAG[FA22:6] (Th17 cells, 10 µM): 0.7392
nDCER (Th17 cells, 10 µM): 0.1046
nDCER(14:0) (Th17 cells, 10 µM): 1.585
nDCER(16:0) (Th17 cells, 10 µM): 30.1076
nDCER(18:0) (Th17 cells, 10 µM): 3.38
nDCER(18:1) (Th17 cells, 10 µM): 0.4226
nDCER(20:0) (Th17 cells, 10 µM): 4.543
nDCER(20:1) (Th17 cells, 10 µM): 0.06424
nDCER(22:0) (Th17 cells, 10 µM): 7.184
nDCER(22:1) (Th17 cells, 10 µM): 1.69
nDCER(24:0) (Th17 cells, 10 µM): 25.6706
nDCER(24:1) (Th17 cells, 10 µM): 24.1916
nDCER(26:0) (Th17 cells, 10 µM): 0.1056
nDCER(26:1) (Th17 cells, 10 µM): 1.0564
nDCER[FA14:0] (Th17 cells, 10 µM): 1.585
nDCER[FA16:0] (Th17 cells, 10 µM): 30.1076
nDCER[FA18:0] (Th17 cells, 10 µM): 3.38
nDCER[FA18:1] (Th17 cells, 10 µM): 0.4226
nDCER[FA20:0] (Th17 cells, 10 µM): 4.543
nDCER[FA20:1] (Th17 cells, 10 µM): 0.06424
nDCER[FA22:0] (Th17 cells, 10 µM): 7.184
nDCER[FA22:1] (Th17 cells, 10 µM): 1.69
nDCER[FA24:0] (Th17 cells, 10 µM): 25.6706
nDCER[FA24:1] (Th17 cells, 10 µM): 24.1916
nDCER[FA26:0] (Th17 cells, 10 µM): 0.1056
nDCER[FA26:1] (Th17 cells, 10 µM): 1.0564
nFFA (Th17 cells, 10 µM): 4.287
nFFA(12:0) (Th17 cells, 10 µM): 1.325
nFFA(14:0) (Th17 cells, 10 µM): 3.367
nFFA(14:1) (Th17 cells, 10 µM): 0.5145
nFFA(15:0) (Th17 cells, 10 µM): 1.588
nFFA(16:0) (Th17 cells, 10 µM): 33.0903
nFFA(16:1) (Th17 cells, 10 µM): 1.393
nFFA(17:0) (Th17 cells, 10 µM): 2.524
nFFA(18:0) (Th17 cells, 10 µM): 24.6299
nFFA(18:1) (Th17 cells, 10 µM): 8.8316
nFFA(18:2) (Th17 cells, 10 µM): 4.005
nFFA(18:3) (Th17 cells, 10 µM): 1.526
nFFA(18:4) (Th17 cells, 10 µM): 0.3971
phosphatidylethanolamine (PE) and phosphatidylcholine (PC) (not statistically significant): modestly increased
lipid metabolites with differential levels (of 1300 lipid metabolites, p < 0.05): 39.6%
